Values joined by “and” are separate entries in the source; they are usually repeats but may differ in a detail not shown here. Identical values can stand only once. Counter-ions that a name gives are not always drawn. Like-named read-outs stand apart in the source and are kept apart here.

From US4965259A, “Dioxazocine derivatives compositions and methods containing them having antidepressive, spasmolytic, anticonvulsive, and antiarrhythmic properties” (EGIS Gyogyszergyar, priority 1987, dated 1990) come the findings set out here.

Data set [1] has as its system tonic-extensoric spasms on the hind limbs (pentetrazole). The experiment in a line: Spasmolytic action on mice (pentetrazole-induced tonic-extensoric spasms). The class given is in vivo, white mice. The settings on record: for ED50: Mus musculus, po; for Therapeutical index LD50/ED50: pentetrazole spasm. The method, then:
The tests were carried out according to the method of Banzinger and Hane which was adapted to white mice [Arch. Int. Pharmacolyn., 167, 245-249 (1959)]. The test animals were treated perorally with the compounds to be tested. One hour after the administration pentetrazole (6,7,8,9,-tetrahydro-5H-tetrazolozepine) was given intraperitoneally in a dosis of 125 mg/kg. The tonic-extensoric spasms on the hind limbs were registered.

Data set [2] deals with electroshock provoked by electric current. Briefly: Anticonvulsive activity on mice (inhibition of electroshock). The settings on record: for ED50: Mus musculus, po. The data set is classed as in vivo. As for the experimental part:
The tests were carried out according to the method of Swinyard et al. [I. Pharmacol. Exp. Ther., 106, 319-330 (1952)] which method is based on the inhibition of electroshock provoked by electric current on mice. The compounds to be tested were administered perorally. One hour later electroshocks were given by using corneal electrodes. The frequency of the electroshocks was 50 Hz, the current intensity 45 mA and the duration 0.4 sec. The full inhibition of the tonic-extensoric spasm on the hind limbs was considered as the criterium of the anticonvulsive activity. As reference compound phenobarbital, trimetadone and traboxopin were used.

A short description of data set [3]: Acute toxicity on white mice (LD50 p.o.). The settings on record: mouse, in vivo, po. The arrangement: species or system strain CFLP, both sexes. As for the experimental part: Acute toxicity of the compounds was tested on white mice of both sexes from the strain CFLP in groups consisting of 10 animals weighing 18 to 22 g. The compounds to be tested were administered perorally in a volume of 20 ml/kg. […] The animals could consume tap water and standard mouse feed ad libitum. The LD50 -values were determined according to Litchfield and Wilcoxon [J. Pharmacol. Exp. Ther., 96, 99 (1949)].

The test system of data set [4] is sleep induced with hexobarbital. Briefly: Narcosis potentiating activity (sleep induced with hexobarbital on mice). The data set is classed as in vivo. The settings on record: for ED50: Mus musculus, po, 1 h before hexobarbital 40 mg/kg i.v., positive = sleep exceeding control mean by factor 2,5; for Therapeutical index LD50/ED50: p.o. As for the experimental part:
Groups consisting of 6 mice each were treated with the compound to be examined, perorally. After one hour, hexobarbital [5-(1-cyclohexenyl)-1,5-dimethylbarbituric acid] was injected, intravenously, at a dosage of 40 mg/kg. The control group was treated only with hexobarbital to provoke sleep. The duration of sleep was recorded. If the duration of sleep of an animal exceeded that of the mean value of the control group by a factor of 2,5, it was considered as a positive reaction. From the data referring to the animals indicating a positive reaction, the ED50 -value was calculated. From the values of LD50 and ED50, the therapeutical index was determined for each compound tested.

In another data set the test system is mice. Briefly: Motility inhibiting activity (Dews equipment). As to conditions: for ED50: Mus musculus, po, 0.5 h, interruptions of infrared beam within 30 minutes; for Therapeutical index LD50/ED50: motility inhibition, p.o. The class given is in vivo. The method, then:
The tests were performed according to the method of Borsy et al. [Arch. Int. Pharmacolyn., 124, 1-2 (1960)]. […] Then the test animals were placed in a Dews equipment. In this equipment the number of interruptions of infrared beam within 30 minutes was counted. The percentual deviation from the number of interruptions in the case of the control group was determined in each group, then the ED50 -values and therapeutical indexes were calculated.

For data set [5], the system named is tremor induced by tremorine. Briefly: Inhibition of tremor induced by tremorine on mice. The data set is classed as in vivo. The settings on record: for ED50: Mus musculus, po, 1 h before tremorine 20 mg/kg i.p., evaluated 45 minutes after tremorine; for Therapeutical index LD50/ED50: tremorine tremor, p.o. As for the experimental part:
The tests were carried out according to Everett [Science, 124, 79 (1956)]. Tremor was induced by tremorine [1,1'-(2-butynylene)-dipyrrolidine] administered intraperitoneally at a dosage of 20 mg/kg. The compounds to be examined were given perorally to the animals one hour prior to the administration of tremorine, and the tremor developed was evaluated 45 minutes after the administration of tremorine.

The test system of data set [6] is arrhythmia provoked by aconitine. Briefly: Antiarrhythmic activity on rats (arrhythmia provoked by aconitine). The class given is in vivo. As to conditions: p.o., 4 mg/kg, 30 minutes prior to aconitine 75 μg/kg i.v. As for the experimental part: The antiarrhythmic activity of the novel compounds was examined by influencing the arrhythmia provoked by aconitine on rats weighing 160 to 200 g according to a modified method of Marmo et al. [Arzneim.-Forsch., 20, 12 (1970)]. The animals were anaesthetized by the administration of 1.2 g/kg of ethyl urethane, intraperitoneally. Aconitine was given at a dosage of 75 μg/kg, intravenously. The compounds to be tested were administered perorally 30 minutes prior to the treatment with aconitine. In the test, lidocaine and quinidine was employed for comparison.

A further data set deals with tetrabenazine ptosis. The experiment in a line: Antagonism of tetrabenazine ptosis on mice. The settings on record: for ED50: Mus musculus, po; for Therapeutical index LD50/ED50: tetrabenazine ptosis, mice, p.o.
Setting [7] is: mice, p.o., 1 h before pentetrazole 125 mg/kg i.p., read-out: ED50.
The mark [8] stands for this setting: mice, p.o., 1 h before electroshock (50 Hz, 45 mA, 0.4 sec), full inhibition of tonic-extensoric spasm, read-out: ED50.
The mark [9] stands for this setting: white mice, p.o., 7 days observation, Litchfield and Wilcoxon, read-out: LD50 p.o.

Experimental for tetrabenazine ptosis: Groups consisting of 10 mice each were treated, perorally, with different doses of the compounds to be tested. The control group was treated only with the corresponding carrier. After 30 minutes, tetrabenazine [3-isobutyl-9,10-dimethoxy-1,2,3,4,6,7-hexahydrobenzo[a]quinolizine-2-one]was administered intraperitoneally at a dosage of 50 mg/kg. The number of animals having closed palpebral fissure was determined in each group after 30, 60, 90 and 120 minutes. Then, the mean value of ptosis was calculated in each group, and the deviation from that of the control group (i.e. the inhibition) was expressed in percentage. From the data obtained, the ED50 -value and the therapeutical index were determined for each novel compound tested as well as for amitryptiline [5-(3-dimethylaminopropylidine)-10,11-dihydro-5H-dibenzo[a,d]cycloheptene hydrochloride] and traboxopin [2-chloro-12(3-dimethylamino-2-methylpropyl)-12H-dibenzo[d,g][1,3,6]dioxazocine] employed for comparison.

Regarding `CN1C(=O)OC(C)(C)C1=O` [trimetadione, 3,5,5-trimethyl-oxazolidine-2,4-dione], the ED50 (as a rule, the dose that gives a 50% effect, or the effect in half of the subjects) in data set [1] (setting [7]) was 400 mg/kg; in data set [2] (setting [8]), 490 mg/kg. In addition, in data set [1] (mice, p.o.), the “Therapeutical index LD50/ED50” value came out at 5.5.

For the compound `CNCC(C)CN1c2ccccc2OCOc2ccc(Cl)cc21` (centres unmarked) [Example 3, 2-Chloro-12-(3-methylamino-2-methylpropyl)-12H-dibenzo[d,g][1,3,6]dioxazocine hydrochloride], the LD50 (commonly the dose expected to kill half of the subjects tested) at 168 h in data set [3] (setting [9]) was 500 mg/kg. The ED50 amounted to 2.4 mg/kg in data set [4], 27 mg/kg in the data set with mice, 6.4 mg/kg in data set [5] and 19 mg/kg in data set [1] (setting [7]). Moreover, the “Therapeutical index LD50/ED50” value in data set [4] (narcosis potentiation) is listed as 208; in the data set on mice it was 18.50; in data set [5], 78.1; in data set [1] (mice, p.o.), 26.3. Also, in data set [4] (narcosis potentiation, statement on Table II), the “Therapeutical index compared with the known reference compounds” value is listed as “several times higher than that of the known reference compounds”.

Take `CNCCCN1c2ccccc2OCOc2ccc(Cl)cc21` [Example 4, 2-Chloro-12-(3-methylaminopropyl)-12H-dibenzo[d,g][1,3,6]dioxazocine maleate]: the LD50 at 168 h in data set [3] (setting [9]) turned out to be 720 mg/kg. Moreover, the 50% effective dose (ED50) in data set [1] (setting [7]) was found to be 25 mg/kg; in data set [2] it was 40 mg/kg; with tetrabenazine ptosis, 7.3 mg/kg. For the same compound, the “Therapeutical index LD50/ED50” value was determined as 28.8 in data set [1] (mice, p.o.); 19 in data set [2] (electroshock, mice, p.o.); 98.6 in the data set with tetrabenazine ptosis. Also, the “Therapeutic index compared with that of the reference compounds” value in data set [2] (electroshock, mice, statement on Table VII) is recorded as 3-5 fold. Moreover, the Inhibition in percentage in data set [6] (maleate) was 90.9% and 90%.

On to `CC(C)NCCCN1c2ccccc2OCOc2ccc(Cl)cc21` [Example 2, 2-Chloro-12-(3-isopropylaminopropyl)-12H-dibenzo[d,g][1,3,6]dioxazocine maleate], for which the LD50 at 168 h in data set [3] (setting [9]) came out at 700 mg/kg. Moreover, in data set [5], the ED50 is 5.2 mg/kg and the “Therapeutical index LD50/ED50” value is recorded as 134.6.

The compound `CCN(CC)CC(=O)Nc1c(C)cccc1C` [lidocaine] gave an Inhibition in percentage in data set [6] of 23.4%.

With `CC(CN(C)C)CN1c2ccccc2OCOc2ccc(Cl)cc21` (centres unmarked) [traboxopin, 2-chloro-12-(3-dimethylamino-2-methylpropyl)-12H-dibenzo[d,g][1,3,6]dioxazocine], the LD50 at 168 h in data set [3] (reference compounds, printed in Table II, read-out: LD50) turned out to be 270 mg/kg. The “Therapeutical index LD50/ED50” value was found to be 10.8 in data set [4] (narcosis potentiation); 10.8 in the data set with mice; 10.8 in data set [5]; 8.4 in data set [1] (mice, p.o.); 5.0 in data set [2] (electroshock, mice, p.o.). Also, the ED50 in the data set with mice amounted to 25 mg/kg; in data set [5], 25 mg/kg; in data set [1] (setting [7]) it was 32 mg/kg; in data set [2] (setting [8]), 54 mg/kg.

Take `CNC1=Nc2ccc(Cl)cc2C(c2ccccc2)=[N+]([O-])C1` [chlordiazepoxide, 7-chloro-2-methylamino-5-phenyl-3H-1,4-benzodiazepine-4-oxide]: the ED50 in data set [4] worked out at 10 mg/kg; in the data set on mice, 60 mg/kg. Besides, the “Therapeutical index LD50/ED50” value in data set [4] (narcosis potentiation) amounted to 62.0; in the data set on mice it was 10.3.

For the compound `CCC1(c2ccccc2)C(=O)NC(=O)NC1=O` [phenobarbital, 5-ethyl-5-phenylbarbituric acid], the results for the ED50 in data set [1] and in data set [2] were 19 mg/kg and 24.5 mg/kg, respectively. Moreover, the “Therapeutical index LD50/ED50” value in data set [1] (mice, p.o.) amounted to 8.8; in data set [2] (electroshock, mice, p.o.) it was 6.8.

`CCCC(C)(COC(N)=O)COC(N)=O` [meprobamate, 2-methyl-2-propylpropandiol-1,3-dicarbamate]: the 50% effective dose (ED50) in data set [4] worked out at 260 mg/kg; in the data set on mice it was 270 mg/kg. In addition, the “Therapeutical index LD50/ED50” value in data set [4] (narcosis potentiation) turned out to be 4.2; in the data set with mice it was 4.1.

Take `OC(CCN1CCCCC1)(c1ccccc1)C1CCCCC1` (centres unmarked) [trihexyphenidyl]: in data set [5], the median effective dose (ED50) is 15 mg/kg and the “Therapeutical index LD50/ED50” value is recorded as 24.3.

Consider `CN(C)CCC=C1c2ccccc2CCc2ccccc21` [amitryptiline, 5-(3-dimethylaminopropylidine)-10,11-dihydro-5H-dibenzo[a,d]cycloheptene hydrochloride], for which, in the data set with tetrabenazine ptosis, the ED50 stood at 12 mg/kg and the “Therapeutical index LD50/ED50” value was found to be 18.7.

`C=C[C@H]1C[N@@]2CC[C@H]1C[C@@H]2[C@@H](O)c1ccnc2ccc(OC)cc12` [quinidine] showed an Inhibition in percentage in data set [6] of 27.3%.
